In article PMC6332090, “Synthesis and Preliminary Evaluation of N-Oxide Derivatives for the Prevention of Atherothrombotic Events” (Molecules, 2015):
Like-named read-outs stand apart in the source and are kept apart here. Marks after values point to notes of the source that are not given here.

Tests used:
[1] = test system: mouse pulmonary thromboembolism model; assay: In vivo antithrombotic activity: acute pulmonary thromboembolism model induced by collagen-epinephrine mixture; settings: mice; for deaths per group: ten per group, oral 100 µmol/10 g, 15 min after thrombogenic stimulus; for % Protection / Paralyzed or Died Animals/Total: oral single dose 100 µmol/10 g body weight; for % Protection: [1 − (paralyzed + death animals)/total animals] × 100; for Paralyzed or Died Animals/Total: collagen (11 mg/kg) plus epinephrine (0.7 mg/kg) i.v. after 60 min, evaluated 15 min after stimulus
Experimental: The antithrombotic effects of all compounds (3a,b, 4a,b, 8a,b, 9a,b, 13a,b and 14a,b) were evaluated in vivo using a mouse pulmonary thromboembolism model [18, 19].
In vivo pulmonary thromboembolism was induced in mice according to previously described procedures [18, 19]. Ten Swiss male mice (25−30 g) were used in each test group and the control group. Compounds (3a,b, 4a,b, 8a,b, 9a,b, 13a,b and 14a,b) and acetylsalicylic acid were given orally (100 µmol/10 g, 0.1 mL/10 g) using a 2% carboxymethylcellulose suspension as the vehicle. After 60 min, an intravenous injection of the thrombogenic stimulus containing a mixture of collagen (11 mg/kg) plus epinephrine (0.7 mg/kg) was administered through the tail vein. The dose of the pro-thrombotic mixture was previously characterized using a dose/response curve able to reliably reproduce 80%–90% mortality rate or animal paralysis [15]. The loss of the righting reflex was considered an indication of animal’s paralysis in the control group. The rates of animal survival and paralysis were evaluated 15 min after the administration of the thrombogenic stimulus. After this time, the animals were euthanized using carbon dioxide. […] The protection against acute pulmonary thromboembolism (percentage) was calculated as follows: [1 − (paralyzed + death animals)/total animals] × 100. The chi-square test was used to examine the difference between the control and treated groups.

rat platelet-rich plasma = assay: In vitro antiplatelet activity: platelet aggregation in rat platelet-rich plasma (turbidimetric method of Born and Cross); type: cell-based; settings: compounds and ASA at 150 μM, rat PRP, n = 3; for inhibition at 150 µM: Platelet
Experimental: In vitro antiplatelet activity was evaluated using rat platelet-rich plasma in the presence of ADP (10 μM), arachidonic acid (100 μM) and collagen (5 μg/mL) [15, 16].
Five rats (Wistar; 200–250 g) were previously anesthetized by inhalation of isoflurane using a vaporizing system. Animal breathing was monitored during all procedures. Blood was withdrawn from each rat’s aorta artery and mixed with 3.8% trisodium citrate (9:1 v/v). The animals were then euthanized by deepening of anesthesia. Platelet-rich plasma (PRP) was prepared by centrifugation at 375× g for 10 min at room temperature. The platelet-poor plasma (PPP) was prepared by centrifugation of the pellet at 1800× g for 10 min at room temperature. Platelet aggregation was monitored by the turbidimetric method of Born and Cross [16] using a Chrono-Log aggregometer. PRP (300 μL) was incubated at 37 °C for 1 min with continuous stirring at 900 rpm. ADP (10 μM), type I collagen (5 μg/mL; molecular weight of 115–130 kDa) and arachidonic acid (100 μM) were used to induce platelet aggregation. […] Acetylsalicylic acid (AAS, 150 μM) was used as positive control. The results were expressed as an inhibition percentage. The statistical analysis was performed using ANOVA followed by Tukey’ s test.

[2] = test system: micronucleated reticulocytes (MNRET) of mice; assay: In vivo genotoxicity: micronucleus test in peripheral blood reticulocytes
Experimental: The genotoxicity induced by 14a was evaluated using the micronucleus test.
Compound 14a (250 mg/kg) and negative control (1% carboxymethylcellulose (CMC) suspension and 0.2% tween; 0.3 mL) were administered to the animals orally. The positive control group received cyclophosphamide (50 mg/kg; i.p.). Groups of 10 Swiss mice of both sexes (25−30 g) were used in each test and control group. After 30 h, the animals were anesthetized using a mixture of ketamine/xylazine (100/10 mg/kg; i.p.), and […] of blood were collected from the tail vein and added to laminas pre-stained with acridine orange. The animals were euthanized via deepening of anesthesia. One thousand reticulocytes per animal were counted, and the frequency of micronucleated cells was registered. […] When p < 0.05, the average values for the treatments were compared using the Tukey method, calculating the minimum significant difference at α = 0.05.

[3] = aggregation induced by ADP 10 μM
[4] = aggregation induced by arachidonic acid 100 μM
[5] = aggregation induced by collagen 5 μg/mL
[6] = aggregation induced by ADP 10 μM, read-out: Platelet Inhibition (%) ADP (10 μM)
[7] = aggregation induced by collagen 5 μg/mL, read-out: Platelet Inhibition (%) Collagen (5 μg/mL)
[8] = aggregation induced by arachidonic acid 100 μM, read-out: Platelet Inhibition (%) Arachidonic Acid (100 μM)

Row | Molecule | deaths per group [1] | % Protection [1] | Paralyzed or Died Animals/Total [1] | Platelet Inhibition (%) ADP (10 μM) (rat platelet-rich plasma; [3]) | Platelet Inhibition (%) Arachidonic Acid (100 μM) (rat platelet-rich plasma; [4]) | Platelet Inhibition (%) Collagen (5 μg/mL) (rat platelet-rich plasma; [5]) | inhibition at 150 µM (rat platelet-rich plasma; [6]) | inhibition at 150 µM (rat platelet-rich plasma; [7]) | inhibition at 150 µM (rat platelet-rich plasma; [8]) | micronucleated reticulocytes (MNRET), frequency in 1000 cells ([2]; mouse, in vivo, po, 250 mg/kg) | micronucleated reticulocytes (MNRET), frequency in 1000 cells ([2]; mice, positive control 50 mg/kg i.p., blood collected after 30 h, mean ± SD)
1 | 3-((2-(3-Hydroxybenzoyl)hydrazono)methyl)-4-methyl-1,2,5-oxadiazole 2-oxide [Compound 3a] | two | 40 * % | 6/10 | 10.1 ± 3.3 % | 52.6 ± 4.1 % | 17.5 ± 2.7 % | – | – | – | – | –
2 | 3-((2-(4-Hydroxybenzoyl)hydrazono)methyl)-4-methyl-1,2,5-oxadiazole 2-oxide [Compound 3b] | two | 30 * % | 7/10 | 16.8 ± 2.9 % | 47.8 ± 3.7 % | 10.5 ± 3.3 % | – | – | – | – | –
3 | 5-((2-(3-Hydroxybenzoyl)hydrazono)methyl)benzo[c][1,2,5]oxadiazole 1-oxide [Compound 13a] | – | 70 *^,† % | 3/10 | 47.1 ± 2.5 % | 52.3 ± 3.8 % | 45.1 ± 3.8 % | – | – | – | – | –
4 | CC(=O)Oc1ccccc1C(=O)O [ASA, acetylsalicylic acid, reference compound] | two | 30 * % | 7/10 | did not inhibit | 72.2 ± 3.7 % | – | 0% | 77.1 ± 3.7% | – | – | –
5 | O=C(NN=Cc1c(-c2ccccc2)no[n+]1[O-])c1cccc(O)c1 [Compound 8a, 3-((2-(3-Hydroxybenzoyl)hydrazono)methyl)-4-phenyl-1,2,5-oxadiazole 2-oxide] | two | 40 * % | 6/10 | – | – | – | 12.4 ± 3.7% | 21.8 ± 5.1% | 55.1 ± 4.3% | – | –
6 | O=C(NN=Cc1c(-c2ccccc2)no[n+]1[O-])c1ccc(O)cc1 [Compound 8b, 3-((2-(4-Hydroxybenzoyl)hydrazono)methyl)-4-phenyl-1,2,5-oxadiazole 2-oxide] | two | 40 * % | 6/10 | – | – | – | 9.2 ± 2.8% | 8.8 ± 3.6% | 31.6 ± 3.9% | – | –
7 | CC(=O)Oc1ccccc1C(=O)Oc1cccc(C(=O)N/N=C/c2c(-c3ccccc3)no[n+]2[O-])c1 [Compound 9a, (E)-3-((2-(3-((2-Acetoxybenzoyl)oxy)benzoyl)hydrazono)methyl)-4-phenyl-1,2,5-oxadiazole 2-oxide] | two | 30 * % | 7/10 | – | – | – | 53.4 ± 2.1% | 43.5 ± 4.7% | 73.4 ± 3.3% | – | –
8 | CC(=O)Oc1ccccc1C(=O)Oc1ccc(C(=O)N/N=C/c2c(-c3ccccc3)no[n+]2[O-])cc1 [Compound 9b, (E)-3-((2-(4-((2-Acetoxybenzoyl)oxy)benzoyl)hydrazono)methyl)-4-phenyl-1,2,5-oxadiazole 2-oxide] | – | 50 *^,† % | 5/10 | – | – | – | 68.8 ± 1.3% | 47.2 ± 2.9% | 82.7 ± 2.1% | – | –
9 | O=C(NN=Cc1ccc2c(c1)no[n+]2[O-])c1ccc(O)cc1 [Compound 13b, 5-((2-(4-Hydroxybenzoyl)hydrazono)methyl)benzo[c][1,2,5]oxadiazole 1-oxide] | – | 70 *^,† % | 3/10 | 44.2 ± 5.1 % | 57.8 ± 4.9 % | 43.0 ± 3.1 % | – | – | – | – | –
10 | CC(=O)Oc1ccccc1C(=O)Oc1cccc(C(=O)N/N=C/c2ccc3c(c2)no[n+]3[O-])c1 [Compound 14a, (E)-5-((2-(3-((2-Acetoxybenzoyl)oxy)benzoyl)hydrazono)methyl)benzo[c][1,2,5]oxadiazole 1-oxide] | – | 80 *^,† % | 2/10 | – | 76.9 ± 3.1 % | 85.3 ± 3.7 % | – | – | – | < 4 | –
11 | CC(=O)Oc1ccccc1C(=O)Oc1ccc(C(=O)N/N=C/c2ccc3c(c2)no[n+]3[O-])cc1 [Compound 14b, (E)-5-((2-(4-((2-Acetoxybenzoyl)oxy)benzoyl)hydrazono)methyl)benzo[c][1,2,5]oxadiazole 1-oxide] | – | 70 *^,† % | 3/10 | – | 79.1 ± 1.9 % | 79.8 ± 3.4 % | – | – | – | – | –
12 | O=P1(N(CCCl)CCCl)NCCCO1 (stereo not drawn) [Cyclophosphamide, reference compound] | – | – | – | – | – | – | – | – | – | – | 41 ± 5
13 | (E)-3-((2-(3-((2-Acetoxybenzoyl)oxy)benzoyl)hydrazono)methyl)-4-methyl-1,2,5-oxadiazole 2-oxide [Compound 4a] | two | 40 * % | 6/10 | 65.6 ± 2.4 % | 70.1 ± 2.9 % | 37.8 ± 4.1 % | – | – | – | – | –
14 | (E)-3-((2-(4-((2-Acetoxybenzoyl)oxy)benzoyl)hydrazono)methyl)-4-methyl-1,2,5-oxadiazole 2-oxide [Compound 4b] | – | 50 *^,† % | 5/10 | – | 87.5 ± 2.6 % | 34.5 ± 3.5 % | – | – | – | – | –
